Reference: ChEMBL document CHEMBL1146526, “Two unusual acetogenins from the roots of Annona salzmanii” (J Nat Prod, 2003)
Converted amounts (≈) assume the structure as drawn.

Assays:
KB = assay: Cytotoxicity against human KB cells; format: functional
[1] = Cytotoxicity against african green monkey Vero cells after 24 hrs; format: cell-based; conditions: chlorocebus sabaeus, read-out: ED50

SMILES	ED50 (KB) [×10⁻⁴ ug/ml]	CC50 at 24 h [1] [µg/mL]	EC50 (KB; Homo sapiens, KB, read-out: ED50 (the source's name)) [µg/mL]
CCCCCCCCCC[C@@H](O)[C@@H](O)CC[C@H](O)[C@@H]1CC[C@@H]([C@@H](O)CCCCCCCCCCC(O)CC2=CC(C)(O)OC2=O)O1 (stereo not given in full) [PARISIN]	1		
CCCCC[C@H](O)[C@@H](O)CCC[C@@H](O)[C@@H]1CC[C@@H](C2CC(O)[C@@H]([C@@H](O)CCCCCCCCCCCCC3=CC(C)OC3=O)O2)O1 (stereo not given in full) [SALZMANOLIN]		0.01 (≈ 0.0153 µM)	0.001 (≈ 0.00153 µM)
CC[C@]1(O)C[C@@H]2CN(CCc3c([nH]c4ccccc34)[C@@](C(=O)OC)(c3cc4c(cc3OC)N(C)[C@H]3[C@@](O)(C(=O)OC)[C@H](OC(C)=O)[C@]5(CC)C=CCN6CC[C@]43[C@@H]65)C2)C1 [VINBLASTINE]	0.1	> 0.1	
